# Numbered stars: 1 amine (or outer) side, 2 acyl side, 3 side chain; on linkers, the order of the positions; unused ones are H or OH. Square brackets hold non-standard residues; d marks the D form. Peptide text beside a SMILES is read from it. * marks the point of attachment. NMeI = CC[CH](C)[CH](NC)C(=O)O; X2 = CCC(C)C(O[*:1])C(=O)[*:2]; NMeV = CN[CH](C(=O)O)C(C)C; X1 = C#CCCCC(O)C(C)C(=O)*
# What was measured:
# [1] = system: MDA-MB-231 cells; assay: MTT cytotoxicity assay in MDA-MB-231 (TNBC) cells; format: cell-based, human; conditions: for cytotoxicity / effect on viability in words: TNBC (MDA-MB-231) cells, MTT
# Description: (§1) The human triple-negative breast cancer cell line MDA-MB-231 was obtained from ATCC and was maintained in DMEM:F-12 (1:1) (Life Technologies, Carlsbad, CA, USA), 10% Fetal Bovine Serum (Atlanta Biologicals, Atlanta, GA, USA), and 1% Penicillin/Streptomycin (Sigma, St. Louis, MO, USA). The estrogen-positive MCF-7 cell line was also obtained from ATCC and was maintained in 1640 RPMI media (Life technologies), 10% FBS, and 1% Penicillin/Streptomycin. HEK-293 cells were also obtained from ATCC and maintained in Dulbecco’s Modification of Eagle’s Medium (DMEM), 10% Fetal Bovine Serum (FBS), and 1% Penicillin/Streptomycin (Pen/Strep).
# (§2) Two rounds of toxicity experimentation were completed. First, MDA-MB-231 and MCF-7 cells were plated at a density of 5 × 10^3 cells per well in a 96-well plate. Cells were allowed to attach overnight. The cells were treated with depsipeptides or vehicle for 72 h with 5% FBS stimulation. DMSO was used as a vehicle control. After treatment, 10 μ L MTT (Sigma) was added to each well (0.5 mg/mL final concentration), and the plates were incubated for 3 h (5% CO2 and 37 °C). The medium was removed and the MTT-formazan crystals were dissolved with 100 μ L DMSO per well. The absorbance was measured at 570 nm with a VICTOR^3 1420 multilabel counter (Perkin Elmer, Springfield, IL, USA). Three wells were analyzed for each condition, and wells containing medium-MTT only (no cells) and medium-MTT (DMSO + 5% FBS) were used as controls. Results were normalized to the DMSO + 5% FBS group.
# [2] = system: MCF-7 cells; assay: MTT cytotoxicity assay in MCF-7 (estrogen positive) cells; format: cell-based, human; conditions: ER-positive MCF-7 cells, 72 h, listed as Veraguamide O
# Description: as §1
# as §2, with “The medium was removed and the MTT-formazan crystals were dissolved with 100 μ L DMSO per well.” left out, “Results were normalized to the DMSO + 5% FBS group.” left out
smiles,measurement,setting,value
C#CCCCC(O)C(C)C(=O)NC(C(=O)N(C)C(C(=O)OC(C(=O)N1CCCC1C(=O)N(C)C(C(=O)O)C(C)CC)C(C)CC)C(C)C)C(C)CC (stereo not drawn) [Veraguamide O (1)] (X1-I[NMeV][X2]P[NMeI]-OH; configuration not given here),cell death observed microscopically,"[1]; MDA-MB-231 (TNBC), 10 μM, microscopy",appeared to induce cell death
same,viability,"[1]; MDA-MB-231, MTT, 72 h, 0.14 µM, % of DMSO + 5% FBS control",86%
same,"selectivity for TNBC over estrogen-positive cells, in words","[1]; MDA-MB-231 compared to MCF-7, MTT",selective inhibitory effects against TNBC (MDA-MB-231) cells compared to estrogen-positive (MCF-7) breast cancer cells
same,cytotoxicity / effect on viability in words,[1]; 72 h,decreased viability in MDA-MB-231 cells in a concentration-dependent manner
same,cytotoxicity / effect on viability in words,"[1]; 72 h, listed as veraguamide O","similar, albeit minor, levels of toxicity"
same,cytotoxicity / effect on viability in words,[2],no cytotoxicity

# Source: PMC11819893, “Isolation and Bioassay of Linear Veraguamides from a Marine Cyanobacterium (Okeania sp.)” (Molecules, 2025)
